# According to US20060035966A1, “Irreversible selective androgen receptor modulators and methods of use thereof” (priority 2002, published 2006):
# Read-outs that look alike come from different tables or passages of the source.
# What was measured:
# [1] = tested on: HT-29 colorectal adenocarcinoma cell line; assay: Cytotoxicity, SRB assay, HT-29; type: cell-based, human; conditions: Homo sapiens
# Description: (§1) The SRB Assay was used to determine cell number during cytotoxocity experiments. The following protocol was used: • 1. […] Experimental cultures were cultured in 96-well microtiter plates (200 uL growth medium per well; 1,000-200,000 cells per well). • 3. Cultures were fixed with 50 uL 50% TCA (4° C.). (see cell fixation protocol for details). • 4. Fixed cells were stained with 50 uL 0.4% (wt/vol) SRB in 1% acetic acid for 10 minutes. • 5. SRB was removed and the cultures were quickly* rinsed 5 times with 1% acetic acid to remove unbound dye.** • 6. Cultures were air-dried overnight until there is no visible moisture. • 7. […] Absorbance was read at 540 nm. • * quickly performing rinsing process is to prevent desorption of protein-bound SRB • ** completely remove residual wash solution by sharply flicking plates over sink. Fixation of Cells Attached to the Plastic Substratum
# (§2) The following protocol was used for fixing cells: • a. 50 uL of 50% TCA (4° C.) were gently layered on the top of growth medium in each well to make a final TCA concentration of 10%. • b. Cultures were incubated at 4° C. for 1 hour. • c. Cultures were washed 5 times with tap water to remove TCA, growth medium, low-molecular-weight metabolites, and serum protein. • d. Plates were air-dried until there was no visible moisture.
# MCF-7 cells = assay: Induction of apoptosis, MCF-7; type: cell-based
# Description: (§3) The ability of DJ 1-31, DJ 1-29, S-NTBA and Compound V to induce apoptosis in different prostate cancer cell lines (DU 145, PC-3, TSU, PPC-1 and LNCaP), in other cancer cell lines (TCCSUP, HT-29 and MCF-7) and in a control cell line (CV-1) was determined and the results are shown in Table 6.
# CV-1 cells = assay: Induction of apoptosis, CV-1; type: cell-based, African green monkey
# Description: as §3
# CV-1 control cell line = assay: Cytotoxicity, SRB assay, CV-1 control; type: cell-based, African green monkey; conditions: Chlorocebus sabaeus, read-out: IC50 CV-1
# Description: (§4) The SRB Assay was used to determine cell number during cytotoxocity experiments. The following protocol was used: • 1. Cells were detached with 0.25% trypsin. • 2. Experimental cultures were cultured in 96-well microtiter plates (200 uL growth medium per well; 1,000-200,000 cells per well). • 3. Cultures were fixed with 50 uL 50% TCA (4° C.). (see cell fixation protocol for details). • 4. Fixed cells were stained with 50 uL 0.4% (wt/vol) SRB in 1% acetic acid for 10 minutes. • 5. SRB was removed and the cultures were quickly* rinsed 5 times with 1% acetic acid to remove unbound dye.** • 6. Cultures were air-dried overnight until there is no visible moisture. • 7. The cellular protein-bound SRB was dissolved with 200 uL unbuffered Tris base (10 mM, pH 10.5) for 30 minutes on a rocking platform shaker. • 8. Absorbance was read at 540 nm. • * quickly performing rinsing process is to prevent desorption of protein-bound SRB • ** completely remove residual wash solution by sharply flicking plates over sink. Fixation of Cells Attached to the Plastic Substratum
# as §2
# [2] = tested on: PPC-1 prostate cancer cell line; assay: Cytotoxicity, SRB assay, PPC-1; type: cell-based, human; conditions: Homo sapiens
# Description: as §1, §2
# LNCaP cells = assay: Induction of apoptosis, LNCaP; type: cell-based, human
# Description: as §3
# PC-3 cells = assay: Induction of apoptosis, PC-3; type: cell-based, human
# Description: as §3
# [3] = tested on: TCCSUP bladder cancer cell line; assay: Cytotoxicity, SRB assay, TCCSUP; type: cell-based, human; conditions: Homo sapiens, TCC-SUP, read-out: IC50 TCCSUP
# Description: as §1, §2
# TSU cells = assay: Induction of apoptosis, TSU; type: cell-based, human
# Description: as §3
# [4] = tested on: DU 145 prostate cancer cell line; assay: Cytotoxicity, SRB assay, DU 145; type: cell-based, human; conditions: Homo sapiens
# Description: as §1, §2
# [5] = tested on: MCF-7 breast adenocarcinoma cell line; assay: Cytotoxicity, SRB assay, MCF-7; type: cell-based; conditions: Homo sapiens, Example 4
# Description: as §4, §2
# TCCSUP cells = assay: Induction of apoptosis, TCCSUP; type: cell-based, human
# Description: as §3
# PPC-1 cells = assay: Induction of apoptosis, PPC-1; type: cell-based, human
# Description: as §3
# [6] = tested on: TSU prostate cancer cell line; assay: Cytotoxicity, SRB assay, TSU; type: cell-based, human; conditions: Homo sapiens, read-out: IC50 TSU
# Description: as §1, §2
# [7] = tested on: PC-3 bone metastatic prostate cancer cell line; assay: Cytotoxicity, SRB assay, PC-3; type: cell-based, human; conditions: Homo sapiens, read-out: IC50 PC-3
# Description: PPC-1, LNCaP, TSU, PC-3, and DU145 were grown in PRMI-1640 medium containing 2 mM L-glutamine supplemented with 10% fetal bovine serum (FBS). Cells were maintained in a 5% CO2/95% air humidified atomosphere at 37° C.
# as §4, §2
# HT-29 cells = assay: Induction of apoptosis, HT-29; type: cell-based, human
# Description: as §3
# [8] = tested on: AR-expressing LNCaP prostate cancer cell line; assay: Cytotoxicity, SRB assay, LNCaP; type: cell-based, human; conditions: for IC50: Homo sapiens, LNCaP
# Description: as §1, §2
# DU 145 cells = assay: Induction of apoptosis, DU 145; type: cell-based, human
# Description: as §3
# [9] = HT-29, 24 h, read-out: IC50 HT-29
# [10] = HT-29, 96 h, read-out: IC50 HT-29
# [11] = PPC-1, 24 h, read-out: IC50 PPC-1
# [12] = PPC-1, 96 h, read-out: IC50 PPC-1
# [13] = DU-145, 24 h, read-out: IC50 DU 145
# [14] = DU-145, 96 h, read-out: IC50 DU 145
# [15] = MCF7, 24 h, drug incubation time 1 day
# [16] = MCF7, 96 h, drug incubation time 4 day
Structure (SMILES),"IC50 [1, 9]","IC50 [1, 10]",Enrichment factor MCF-7 (MCF-7 cells),Enrichment factor CV-1 (CV-1 cells),IC50 (CV-1 control cell line; 24 h),IC50 (CV-1 control cell line; 96 h),"IC50 [2, 11]","IC50 [2, 12]",Enrichment factor LNCaP (LNCaP cells),Enrichment factor PC-3 (PC-3 cells),IC50 ([3]; 24 h),IC50 ([3]; 96 h),Enrichment factor TSU (TSU cells),"IC50 [4, 13]","IC50 [4, 14]","IC50 [5, 15]","IC50 [5, 16]",Enrichment factor TCCSUP (TCCSUP cells),Enrichment factor PPC-1 (PPC-1 cells),IC50 ([6]; 24 h),also measured
C[C@](O)(COc1ccc(NC(=O)CBr)cc1)C(=O)Nc1ccc([N+](=O)[O-])c(C(F)(F)F)c1 [DJ 1-29],3.6 ± 0.4 µM,4.4 ± 0.2 µM,1.617,0.786,6.8 ± 0.5 µM,7.3 ± 0.2 µM,0.9 ± 0.1 µM,1.3 ± 0.1 µM,16.571,0.531,2.6 ± 0.4 µM,2.5 ± 0.4 µM,1.008,0.4 ± 0.1 µM,0.4 ± 0.1 µM,11.9 ± 0.3 µM,12.9 ± 0.7 µM,0.000,1.146,1.3 ± 0.1 µM,"IC50 ([6]; 96 h): 1 ± 0.1 µM; IC50 ([7]; 24 h): 2.3 ± 0.1 µM; IC50 ([7]; 96 h): 2.4 ± 0.4 µM; Enrichment factor HT-29 (HT-29 cells): 1.667; IC50 ([8]; 24 h, read-out: IC50 LNCaP): 1.1 ± 0.4 µM; IC50 ([8]; 96 h, read-out: IC50 LNCaP): 1.8 ± 0.2 µM; Enrichment factor DU 145 (DU 145 cells): 18.643"
C[C@](O)(COc1ccc(N=C=S)cc1)C(=O)Nc1ccc([N+](=O)[O-])c(C(F)(F)F)c1 [Compound V],85.5 ± 4.5 µM,71 ± 1.2 µM,1.926,6.548,> 100 µM,> 100 µM,63.7 ± 4.6 µM,62.6 ± 4.9 µM,2.000,2.500,90.4 ± 2.2 µM,78.1 ± 11.2 µM,1.167,62.1 ± 0.6 µM,69.7 ± 6.5 µM,32.7 ± 1.9 µM,39.4 ± 5.4 µM,1.176,1.749,54.1 ± 5.5 µM,"IC50 ([1]; HT-29, read-out: IC50 HT-29): 55 ± 1.7 µM; IC50 ([2]; PPC-1, read-out: IC50 PPC-1): 58.1 ± 5.9 µM; IC50 [3]: > 100 µM; IC50 ([4]; DU-145, read-out: IC50 DU145): 74.8 ± 1.2 µM; IC50 ([6]; 96 h): 55 ± 0.8 µM; IC50 [6]: 56.9 ± 2.9 µM; IC50 ([7]; 24 h): 47.8 ± 4.2 µM; IC50 ([7]; 96 h): 48.5 ± 10.1 µM; IC50 [7]: 59 ± 6 µM; Enrichment factor HT-29 (HT-29 cells): 1.410; IC50 ([8]; 24 h, read-out: IC50 LNCaP): 19.8 ± 10.5 µM; IC50 ([8]; 24 h, read-out: IC50 LNCaP 24 hr treatment): 39.6 µM; IC50 ([8]; 96 h, read-out: IC50 LNCaP): 12.8 ± 4.1 µM; IC50 ([8]; 144 h, read-out: IC50 LNCaP 6 day treatment): 33.6 µM; IC50 ([8]; read-out: IC50 LNCaP): 26 ± 8.3 µM; Selectivity for the AR-expressing LNCaP prostate cancer cell line ([8]; compared with prostate cancer cell lines not expressing AR, non-prostate cancer cell lines, control cell line): highly selective; Enrichment factor DU 145 (DU 145 cells): 5.071"
